We go through twelve molecules from US20240116985A1, “STAPLED PEPTIDES AND METHODS THEREOF” (priority 2020, published 2024).

In data set [1] the target is T1, full-length beta-Catenin (Uniprot ID P35222) (Homo sapiens, UniProt P35222).
T1 construct: 10 nM full-length beta-Catenin (Uniprot ID P35222)
T1 sequence (P35222 1-781): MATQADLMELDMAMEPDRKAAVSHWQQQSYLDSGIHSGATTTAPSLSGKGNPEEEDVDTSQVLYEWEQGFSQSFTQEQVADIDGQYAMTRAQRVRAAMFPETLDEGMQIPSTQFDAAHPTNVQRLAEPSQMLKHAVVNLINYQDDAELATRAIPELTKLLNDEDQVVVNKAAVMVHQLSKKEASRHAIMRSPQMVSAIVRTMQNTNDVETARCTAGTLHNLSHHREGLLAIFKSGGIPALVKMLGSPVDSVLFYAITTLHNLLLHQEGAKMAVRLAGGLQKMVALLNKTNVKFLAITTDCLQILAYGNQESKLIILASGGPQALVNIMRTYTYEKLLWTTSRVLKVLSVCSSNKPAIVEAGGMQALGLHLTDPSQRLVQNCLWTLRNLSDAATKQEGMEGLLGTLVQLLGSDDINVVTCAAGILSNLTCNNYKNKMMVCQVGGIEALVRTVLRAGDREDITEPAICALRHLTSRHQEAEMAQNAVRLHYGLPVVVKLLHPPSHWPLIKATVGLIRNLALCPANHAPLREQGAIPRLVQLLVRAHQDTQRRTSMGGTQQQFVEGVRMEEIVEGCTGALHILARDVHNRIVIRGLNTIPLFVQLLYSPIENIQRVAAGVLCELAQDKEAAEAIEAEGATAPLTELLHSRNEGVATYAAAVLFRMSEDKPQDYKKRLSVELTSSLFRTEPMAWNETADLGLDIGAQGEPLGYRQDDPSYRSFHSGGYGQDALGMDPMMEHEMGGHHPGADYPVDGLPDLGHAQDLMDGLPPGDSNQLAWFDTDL
Put plainly: Fluorescence polarization IC50 (beta-catenin / 5FAM-TCF4 10-53 competition). The class given is binding. A general note: In fluorescence polarisation assays a small probe gives low polarisation when free and higher when bound to something large.

Data set [2] in a line: CHI Log D procedure. Format: physicochemical. The note with it: for chromatographic logD: pH 7.4, CHI Log D; for CHI Log D: pH 7.4.
Data set [3] in a line: Solubility in PBS. Format: physicochemical. In outline: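 PBS sample ultracentrifuged; supernatant run on HPLC vs. 50 μM peptide in DMSO standard. Solubility = (PBS peak area / DMSO peak area) × 50 uM.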
Setting [4] is: Table E2-1, read-out: beta-Catenin FP IC50.
Where [5] appears, read: fluorescence polarization, read-out: beta-Catenin FP IC50.
Where [6] appears, read: fluorescence polarization, beta-catenin, read-out: FP EC50.

Converted amounts (≈) assume the structure as drawn. Like-named read-outs stand apart in the source and are kept apart here.

Take `CC(=O)N1CCC[C@]12CC=CCCCC1(CCCC=CCCCCCC[C@@](C)(C(=O)N[C@@H](Cc3ccccc3)C(=O)N[C@@H](Cc3c[nH]c4ccccc34)C(=O)N[C@@H](CCC(N)=O)C(N)=O)NC(=O)[C@H](C(C)C)NC(=O)C(Cc3cncn3C)NC(=O)[C@H](C)NC(=O)[C@H](C)NC(=O)[C@H](CC(=O)O)NC(=O)[C@H](CC(=O)O)NC1=O)NC(=O)[C@H](C)NC(=O)[C@H](CC(=O)O)NC2=O` (single isomer, unassigned) [I-331, Ac-PL3-Asp-Ala-B5-Asp-Asp-Ala-Ala-3meH-Val-S8-Phe-Trp-Gln-NH2]: the IC50 in data set [1] (setting [4]) was 5 µM. Moreover, in data set [2], the chromatographic logD was 2.02. Moreover, the solubility at 15 min in data set [3] (Solubility (uM)) was 41 µM (≈ 73.2 µg/mL).

Consider `CC(=O)N1CCC[C@]12CC=CCCCC1(CCCC=CCCCCCC[C@@](C)(C(=O)N[C@@H](Cc3ccccc3)C(=O)N[C@@H](Cc3csc4ccccc34)C(=O)NC(Cc3cncn3C)C(N)=O)NC(=O)[C@H](CC(N)=O)NC(=O)[C@H](Cc3ccccc3)NC(=O)[C@H](C)NC(=O)[C@H](C)NC(=O)[C@H](CCC(=O)O)NC(=O)[C@H](CC(=O)O)NC1=O)NC(=O)[C@H](C)NC(=O)[C@H](CC(=O)O)NC2=O` (single isomer, unassigned) [I-480, Ac-PL3-Asp-Ala-B5-Asp-Glu-Ala-Ala-Phe-Asn-S8-Phe-BztA-3MeH-NH2], for which the IC50 in data set [1] (setting [5]) came to 0.176 µM. The molecule also gave a chromatographic logD in data set [2] of 2.1. Further, the solubility at 15 min in data set [3] (Solubility (uM)) turned out to be 36 µM (≈ 66.6 µg/mL).

On to `CC(=O)N1CCC[C@]12CC=CCCCC1(CCCC=CCCCCCC[C@@](C)(C(=O)N[C@@H](Cc3ccccc3)C(=O)N[C@@H](Cc3csc4ccccc34)C(=O)NC(Cc3cncn3C)C(N)=O)NC(=O)[C@H](CC(N)=O)NC(=O)[C@H](Cc3ccccc3)NC(=O)[C@H](C)NC(=O)[C@H](C)NC(=O)[C@H](CCC(=O)O)NC(=O)[C@H](CC(=O)O)NC1=O)NC(=O)[C@H](C)NC(=O)[C@H](CC(=O)O)NC2=O` (single isomer, unassigned) [I-481, Ac-PL3-Asp-Ala-B5-Asp-Glu-Ala-Ala-Phe-Asn-S8-Phe-BztA-3MeH-NH2], for which, in data set [1] (setting [5]), the IC50 is 0.042 µM. The “CHI Log D” value in data set [2] amounted to 2.133. In addition, the “Solubility” value in data set [3] (15 min) was 30 µM (≈ 55.5 µg/mL).

Take `CC(=O)N1CCC[C@]12CC=CCCCC1(CCCC=CCCCCC[C@@](C)(C(=O)N[C@@H](Cc3ccccc3)C(=O)N[C@@H](Cc3c[nH]c4ccccc34)C(=O)N[C@@H](CCC(N)=O)C(N)=O)NC(=O)[C@H](C(C)C)NC(=O)[C@H](Cc3ccccc3)NC(=O)[C@H](C)NC(=O)[C@H](C)NC(=O)[C@H](CCC(=O)O)NC(=O)[C@H](CC(=O)O)NC1=O)NC(=O)[C@H](C)NC(=O)[C@H](CC(=O)O)NC2=O` (stereo partly drawn) [I-132, Ac-PL3-Asp-Ala-B5-Asp-Glu-Ala-Ala-Phe-Val-S7-Phe-Trp-Gln-NH2]: the IC50 in data set [1] (setting [4]) came out at 5 µM. This molecule had a chromatographic logD in data set [2] of 1.69. The Solubility in data set [3] (Solubility (uM)) worked out at 49 µM (≈ 87.3 µg/mL).

As to `CC(=O)N1CCC[C@]12CC=CCCCC1(CCCC=CCCCCCC[C@@](C)(C(=O)N[C@@H](Cc3ccccc3)C(=O)N[C@@H](Cc3ccc4ccccc4c3)C(=O)N[C@@H](CCC(N)=O)C(N)=O)NC(=O)[C@H](C(C)C)NC(=O)[C@H](Cc3ccccc3)NC(=O)[C@H](C)NC(=O)[C@H](C)NC(=O)[C@H](CCC(=O)O)NC(=O)[C@H](CC(=O)O)NC1=O)NC(=O)[C@H](C)NC(=O)[C@H](CC(=O)O)NC2=O` (stereo partly drawn) [I-140, Ac-PL3-Asp-Ala-B5-Asp-Glu-Ala-Ala-Phe-Val-S8-Phe-2NapA-Gln-NH2], the IC50 in data set [1] (setting [4]) is 2.27 µM. The chromatographic logD in data set [2] was determined as 2.19. Also, in data set [3] (Solubility (uM)), the Solubility is 48 µM (≈ 86.7 µg/mL).

With `CC(=O)N1CCC[C@]12CC=CCCCC1(CCCC=CCCCCCC[C@@](C)(C(=O)N[C@@H](Cc3ccccc3)C(=O)N[C@@H](Cc3c[nH]c4ccccc34)C(=O)N[C@@H](CCC(N)=O)C(N)=O)NC(=O)[C@H](C(C)C)NC(=O)[C@H](Cc3cccc(F)c3)NC(=O)[C@H](C)NC(=O)[C@H](C)NC(=O)[C@H](CC(=O)O)NC(=O)[C@H](CC(=O)O)NC1=O)NC(=O)[C@H](C)NC(=O)[C@H](CC(=O)O)NC2=O` (stereo partly drawn) [I-265, Ac-PL3-Asp-Ala-B5-Asp-Asp-Ala-Ala-3FF-Val-S8-Phe-Trp-Gln-NH2], the IC50 in data set [1] (setting [4]) and in data set [1] (setting [6]) was 3.76 µM in each case. Also, the “CHI Log D” value in data set [2] was 2.032. Also, in data set [3], the “Solubility” value was 36 µM (≈ 64.8 µg/mL).

As to `CC(=O)N1CCC[C@]12CC=CCCCC1(CCCC=CCCCCCC[C@@](C)(C(=O)N[C@@H](Cc3ccccc3)C(=O)N[C@@H](Cc3c[nH]c4ccccc34)C(=O)N[C@@H](CCC(N)=O)C(N)=O)NC(=O)[C@H](C(C)C)NC(=O)[C@H](Cc3ccc(F)c(F)c3)NC(=O)[C@H](C)NC(=O)[C@H](C)NC(=O)[C@H](CC(=O)O)NC(=O)[C@H](CC(=O)O)NC1=O)NC(=O)[C@H](C)NC(=O)[C@H](CC(=O)O)NC2=O` (stereo partly drawn) [I-267, Ac-PL3-Asp-Ala-B5-Asp-Asp-Ala-Ala-34FF-Val-S8-Phe-Trp-Gln-NH2], the IC50 in data set [1] (setting [4]) came to 5 µM. Moreover, the chromatographic logD in data set [2] stood at 2.05. In data set [3] (Solubility (uM)), this molecule returned a Solubility of 37 µM (≈ 67.2 µg/mL).

Regarding `CC(=O)N1CCC[C@]12CC=CCCCC1(CCCC=CCCCCCC[C@@](C)(C(=O)N[C@@H](Cc3ccccc3)C(=O)N[C@@H](Cc3c[nH]c4ccccc34)C(=O)N[C@@H](CCC(N)=O)C(N)=O)NC(=O)[C@H](C(C)C)NC(=O)[C@H](Cc3ccccc3)NC(=O)[C@H](C)NC(=O)[C@H](C)NC(=O)[C@H](Cc3cccnc3)NC(=O)[C@H](CC(=O)O)NC1=O)NC(=O)[C@H](C)NC(=O)[C@H](CC(=O)O)NC2=O` (stereo partly drawn) [I-271, Ac-PL3-Asp-Ala-B5-Asp-3PyrA-Ala-Ala-Phe-Val-S8-Phe-Trp-Gln-NH2], the IC50 in data set [1] (setting [4]) amounted to 5 µM. In data set [2], this molecule yielded a chromatographic logD of 2.44. The “Solubility” value in data set [3] stood at 10 µM (≈ 18.1 µg/mL).

As for `CC(=O)N1CCC[C@]12CC=CCCCC1(CCCC=CCCCCCC[C@@](C)(C(=O)N[C@@H](Cc3ccccc3)C(=O)N[C@@H](Cc3c[nH]c4ccccc34)C(=O)N[C@@H](CCC(N)=O)C(N)=O)NC(=O)[C@H](C(C)C)NC(=O)[C@H](Cc3ccccc3)NC(=O)[C@H](C)NC(=O)[C@H](C)NC(=O)[C@H](Cc3c[nH]cn3)NC(=O)[C@H](CC(=O)O)NC1=O)NC(=O)[C@H](C)NC(=O)[C@H](CC(=O)O)NC2=O` (stereo partly drawn) [I-305, Ac-PL3-Asp-Ala-B5-Asp-His-Ala-Ala-Phe-Val-S8-Phe-Trp-Gln-NH2], the IC50 in data set [1] (setting [4]) and in data set [1] (setting [6]) was 3.98 µM in each case. For the same molecule, the “CHI Log D” value in data set [2] is given as 2.348. Moreover, in data set [3], the “Solubility” value is 10 µM (≈ 18 µg/mL).

Take `CC(=O)N1CCC[C@]12CC=CCCCC1(CCCC=CCCCCCC[C@@](C)(C(=O)N[C@@H](Cc3ccccc3)C(=O)N[C@@H](Cc3c[nH]c4ccccc34)C(=O)N[C@@H](CCC(N)=O)C(N)=O)NC(=O)[C@H](C(C)C)NC(=O)[C@H](Cc3ccsc3)NC(=O)[C@H](C)NC(=O)[C@H](C)NC(=O)[C@H](CC(=O)O)NC(=O)[C@H](CC(=O)O)NC1=O)NC(=O)[C@H](C)NC(=O)[C@H](CC(=O)O)NC2=O` (stereo partly drawn) [I-326, Ac-PL3-Asp-Ala-B5-Asp-Asp-Ala-Ala-3Thi-Val-S8-Phe-Trp-Gln-NH2]: the IC50 in data set [1] (setting [4]) worked out at 1.75 µM. This molecule also displayed a chromatographic logD in data set [2] of 1.97. In addition, the concentration in solution in data set [3] (Solubility (uM)) (Solubility) was 34 µM (≈ 60.8 µg/mL).

Turning to `CC(=O)N1CCC[C@]12CC=CCCCC1(CCCC=CCCCCCC[C@@](C)(C(=O)N[C@@H](Cc3ccccc3)C(=O)N[C@@H](Cc3c[nH]c4ccccc34)C(=O)N[C@@H](CCC(N)=O)C(N)=O)NC(=O)[C@H](C(C)C)NC(=O)[C@H](Cc3ccco3)NC(=O)[C@H](C)NC(=O)[C@H](C)NC(=O)[C@H](CC(=O)O)NC(=O)[C@H](CC(=O)O)NC1=O)NC(=O)[C@H](C)NC(=O)[C@H](CC(=O)O)NC2=O` (stereo partly drawn) [I-327, Ac-PL3-Asp-Ala-B5-Asp-Asp-Ala-Ala-2FurA-Val-S8-Phe-Trp-Gln-NH2], the IC50 in data set [1] (setting [4]) and in data set [1] (setting [6]) was 4.72 µM in each case. Further, the “CHI Log D” value in data set [2] turned out to be 1.958. In addition, the “Solubility” value in data set [3] amounted to 43 µM (≈ 76.2 µg/mL).

`CC(=O)N1CCC[C@]12CC=CCCCC1(CCCC=CCCCCCC[C@@](C)(C(=O)N[C@@H](Cc3ccccc3)C(=O)N[C@@H](Cc3c[nH]c4ccccc34)C(=O)N[C@@H](CCC(N)=O)C(N)=O)NC(=O)[C@H](C(C)C)NC(=O)[C@H](Cc3ccco3)NC(=O)[C@H](C)NC(=O)[C@H](C)NC(=O)[C@H](CC(=O)O)NC(=O)[C@H](CC(=O)O)NC1=O)NC(=O)[C@H](C)NC(=O)[C@H](CC(=O)O)NC2=O` (stereo partly drawn) [I-328, Ac-PL3-Asp-Ala-B5-Asp-Asp-Ala-Ala-2FurA-Val-S8-Phe-Trp-Gln-NH2]: the IC50 in data set [1] (setting [4]) and in data set [1] (setting [6]) was 1.91 µM in each case. Further, in data set [2], the “CHI Log D” value is given as 1.983. Further, in data set [3], the “Solubility” value is 44 µM (≈ 77.9 µg/mL).

Usually chromatographic logD stands for lipophilicity estimated from chromatographic retention. A lower chromatographic logD goes with lower lipophilicity. What is called solubility is the concentration that dissolves in the medium under given conditions. As usually defined, the Solubility is how much of the substance goes into solution per volume. A higher Solubility goes with a readily soluble substance.
